In patent publication US20060069132A1, “Azolecarboxamide herbicides” (priority 2004, published 2006):

Assays:
[1] = test system: Surinam grass; test: Test B pre-/postemergence herbicide test; format: in vivo, Urochloa decumbens; details: for Plant response rating, Surinam Grass: preemergence; for Surinam Grass plant response rating: postemergence, visual rating, scale 0 (no effect) to 100 (complete control)
In short: (§1)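 Greenhouse pot assay with simultaneous preemergence (treated seed) and postemergence (2–18 cm seedlings) applications of surfactant-containing, non-phytotoxic solvent formulations. Response scored visually 13–15 days later on a 0–100 scale, 100 meaning complete control.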

[2] = test system: small flower umbrella sedge; test: Test B flooded paddy test; format: in vivo, Cyperus difformis; details: 1000 g ai/ha, visual rating, scale 0 to 100 (0 no effect, 100 complete control), 13 to 15 days
In short: (§2)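 Treated at 2-leaf (paddy) or 1–4-leaf, 2–18 cm (postemergence); greenhouse 13–15 d; visual score vs control, 0 none to 100 complete control; dash = not tested.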

[3] = test system: pigweed; test: Test B pre-/postemergence herbicide test; format: in vivo, Amaranthus retroflexus; details: for Plant response rating, Pigweed: preemergence; for Pigweed plant response rating: postemergence, visual rating, scale 0 (no effect) to 100 (complete control)
In short: as §1

[4] = test system: morningglory; test: Test B pre-/postemergence herbicide test; format: in vivo, Ipomoea coccinea; details: for Plant response rating, Morningglory: preemergence; for Morningglory plant response rating: postemergence, visual rating, scale 0 (no effect) to 100 (complete control)
In short: (§3)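 Herbicidal effect was judged by eye on a 0–100 scale after plants stood 13 to 15 days in the greenhouse following pre- or postemergence treatment with surfactant-containing formulations.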

[5] = test system: velvetleaf; test: Test A pre-/postemergence herbicide test; format: in vivo, Abutilon theophrasti
In short: (§4)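 Visual injury rating on a 0–100 scale (0 no effect, 100 complete control) versus untreated controls, about ten days after treatment in greenhouse. Pre: directed soil spray onto seeded sandy loam. Post: spray to runoff on plants 2–10 cm tall at one- to two-leaf stage.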

[6] = test system: giant foxtail; test: Test B pre-/postemergence herbicide test; format: in vivo, Setaria faberi; details: for Plant response rating, Foxtail, Giant: preemergence; for Foxtail, Giant plant response rating: postemergence, visual rating, scale 0 (no effect) to 100 (complete control)
In short: as §1

[7] = test system: barnyardgrass; test: Test B flooded paddy test; format: in vivo, Echinochloa crus-galli; details: 1000 g ai/ha, visual rating, scale 0 to 100 (0 no effect, 100 complete control), 13 to 15 days
In short: as §2

[8] = test system: barnyardgrass; test: Test A pre-/postemergence herbicide test; format: in vivo, Echinochloa crus-galli
In short: as §4

[9] = test system: redroot pigweed; test: Test A pre-/postemergence herbicide test; format: in vivo, Amaranthus retroflexus
In short: as §4

[10] = test system: wild oat; test: Test B postemergence herbicide test; format: in vivo, Avena fatua; details: postemergence, visual rating, scale 0 (no effect) to 100 (complete control)
In short: (§5)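 Visual ratings, 0 (no effect) to 100 (complete control), made versus controls after 13–15 d greenhouse. Paddy plants treated at 2-leaf stage; postemergence plants at 1- to 4-leaf stage, 2–18 cm tall.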

[11] = test system: rice; test: Test B flooded paddy test; format: in vivo, Oryza sativa; details: 1000 g ai/ha, visual rating, scale 0 to 100 (0 no effect, 100 complete control), 13 to 15 days
In short: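 Greenhouse test; postemergence application to plants at 1–4 leaves (2–18 cm); paddy species at 2 leaves; evaluated visually vs controls at 13–15 days; scale 0–100 (100 = complete control).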

[12] = test system: lambsquarters; test: Test B pre-/postemergence herbicide test; format: in vivo, Chenopodium album; details: for Plant response rating, Lambsquarters: preemergence; for Lambsquarters plant response rating: postemergence, visual rating, scale 0 (no effect) to 100 (complete control)
In short: as §1

[13] = test system: blackgrass; test: Test B postemergence herbicide test; format: in vivo, Alopecurus myosuroides; details: postemergence, visual rating, scale 0 (no effect) to 100 (complete control)
In short: as §2

[14] = test system: ducksalad; test: Test B flooded paddy test; format: in vivo, Heteranthera limosa; details: 1000 g ai/ha, visual rating, scale 0 to 100 (0 no effect, 100 complete control), 13 to 15 days
In short: as §2

[15] = test system: morningglory; test: Test A pre-/postemergence herbicide test; format: in vivo, Ipomoea spp.
In short: as §4

[16] = test system: corn; test: Test B pre-/postemergence herbicide test; format: in vivo, Zea mays; details: for Plant response rating, Corn: preemergence; for Corn plant response rating: postemergence, visual rating, scale 0 (no effect) to 100 (complete control)
In short: as §1

[17] = test system: velvetleaf; test: Test B pre-/postemergence herbicide test; format: in vivo, Abutilon theophrasti; details: for Plant response rating, Velvetleaf: preemergence; for Velvetleaf plant response rating: postemergence, visual rating, scale 0 (no effect) to 100 (complete control)
In short: as §1

[18] = test system: rice; test: Test B pre-/postemergence herbicide test; format: in vivo, Oryza sativa; details: preemergence
In short: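 Species tested were Echinochloa crus-galli, Ipomoea coccinea, Xanthium strumarium and Oryza sativa, treated both before emergence and at the 1- to 4-leaf stage; rice and barnyardgrass were also tested under flooding at 2 leaves. Greenhouse incubation lasted 13–15 days before visual 0–100 scoring.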

[19] = test system: giant foxtail; test: Test A pre-/postemergence herbicide test; format: in vivo, Setaria faberi
In short: as §4

[20] = test system: wheat; test: Test B postemergence herbicide test; format: in vivo, Triticum aestivum; parameters: key to Wheat plant response rating: 0 = no effect, 100 = complete control; details: postemergence, 500 g ai/ha; visual rating, scale 0 (no effect) to 100 (complete control)
In short: as §5

[21] = test system: large crabgrass; test: Test B pre-/postemergence herbicide test; format: in vivo, Digitaria sanguinalis; details: for Plant response rating, Crabgrass, Large: preemergence; for Crabgrass, Large plant response rating: postemergence, visual rating, scale 0 (no effect) to 100 (complete control)
In short: as §1

[22] = test system: cocklebur; test: Test B pre-/postemergence herbicide test; format: in vivo, Xanthium strumarium; details: for Plant response rating, Cocklebur: preemergence; for Cocklebur plant response rating: postemergence, visual rating, scale 0 (no effect) to 100 (complete control)
In short: as §3

[23] = test system: barnyardgrass; test: Test B pre-/postemergence herbicide test; format: in vivo, Echinochloa crus-galli; details: for Plant response rating, Barnyardgrass: preemergence; for Barnyardgrass plant response rating: postemergence, visual rating, scale 0 (no effect) to 100 (complete control)
In short: as §3

[24] = test system: large crabgrass; test: Test A pre-/postemergence herbicide test; format: in vivo, Digitaria sanguinalis
In short: as §4

[25] = 500 g ai/ha, visual rating 0-100, 0 no effect, 100 complete control
[26] = 125 g ai/ha, 0 to 100 scale, 0 is no effect, 100 is complete control
[27] = Postemergence, 500 g ai/ha, 0 to 100 scale, 0 no effect, 100 complete control
[28] = Postemergence, 2000 g ai/ha, 0 to 100 scale, 0 no effect, 100 complete control
[29] = Preemergence, 2000 g ai/ha, visual rating, 0 to 100 scale (0 no effect, 100 complete control)
[30] = preemergence, 500 g ai/ha, visual injury, 0 to 100 scale (0 no effect, 100 complete control)
[31] = Preemergence, 500 g ai/ha, visual rating, 0 to 100 scale (0 no effect, 100 complete control)

CCNC(=O)c1cc(C)cc(NC(=O)c2cc(C(C)(C)C)nn2CC)n1 [Compound 150]
Plant response rating, Surinam Grass [1, 25]: 10 | Surinam Grass plant response rating ([1]; 125 g ai/ha): 10 | Surinam Grass plant response rating ([1]; 500 g ai/ha): 40 | Plant response rating, Surinam Grass [1, 26]: 10 | Sedge, Umbrella plant response rating [2]: 50 | Plant response rating, Pigweed [3, 25]: 100 | Pigweed plant response rating ([3]; 125 g ai/ha): 70 | Pigweed plant response rating ([3]; 500 g ai/ha): 90 | Plant response rating, Pigweed [3, 26]: 70 | Plant response rating, Morningglory [4, 25]: 20 | Morningglory plant response rating ([4]; 125 g ai/ha): 20 | Morningglory plant response rating ([4]; 500 g ai/ha): 40 | Plant response rating, Morningglory [4, 26]: 0 | Velvetleaf plant response rating [5, 27]: 25 | Plant response rating, Velvetleaf [5, 28]: 15 | Velvetleaf plant response rating [5, 29]: 50 | Velvetleaf plant response rating [5, 30]: 20 | Plant response rating, Foxtail, Giant [6, 25]: 60 | Foxtail, Giant plant response rating ([6]; 125 g ai/ha): 0 | Foxtail, Giant plant response rating ([6]; 500 g ai/ha): 10 | Plant response rating, Foxtail, Giant [6, 26]: 0 | Barnyardgrass plant response rating [7]: 70 | Barnyardgrass plant response rating [8, 27]: 30 | Plant response rating, Barnyardgrass [8, 28]: 65 | Barnyardgrass plant response rating [8, 31]: 50 | Barnyardgrass plant response rating [8, 29]: 80 | Pigweed plant response rating [9, 27]: 80 | Plant response rating, Pigweed [9, 28]: 75 | Pigweed plant response rating [9, 29]: 100 | Pigweed plant response rating [9, 30]: 75 | Oat, Wild plant response rating ([10]; 125 g ai/ha): 20 | Oat, Wild plant response rating ([10]; 500 g ai/ha): 20 | Rice plant response rating [11]: 40 | Plant response rating, Lambsquarters [12, 25]: 100 | Lambsquarters plant response rating ([12]; 125 g ai/ha): 50 | Lambsquarters plant response rating ([12]; 500 g ai/ha): 70 | Plant response rating, Lambsquarters [12, 26]: 0 | Blackgrass plant response rating ([13]; 125 g ai/ha): 0 | Blackgrass plant response rating ([13]; 500 g ai/ha): 10 | Ducksalad plant response rating [14]: 20 | Morningglory plant response rating [15, 27]: 0 | Plant response rating, Morningglory [15, 28]: 10 | Morningglory plant response rating [15, 31]: 10 | Morningglory plant response rating [15, 29]: 35 | Plant response rating, Corn [16, 25]: 20 | Corn plant response rating ([16]; 125 g ai/ha): 10 | Corn plant response rating ([16]; 500 g ai/ha): 50 | Plant response rating, Corn [16, 26]: 0 | Plant response rating, Velvetleaf [17, 25]: 10 | Velvetleaf plant response rating ([17]; 125 g ai/ha): 20 | Velvetleaf plant response rating ([17]; 500 g ai/ha): 60 | Plant response rating, Velvetleaf [17, 26]: 0 | Plant response rating, Rice [18, 25]: 40 | Plant response rating, Rice [18, 26]: 0 | Foxtail, Giant plant response rating [19, 27]: 20 | Plant response rating, Foxtail, Giant [19, 28]: 25 | Foxtail, Giant plant response rating [19, 31]: 15 | Foxtail, Giant plant response rating [19, 29]: 55 | Wheat plant response rating [20]: 10 | Plant response rating, Crabgrass, Large [21, 25]: 10 | Crabgrass, Large plant response rating ([21]; 125 g ai/ha): 10 | Crabgrass, Large plant response rating ([21]; 500 g ai/ha): 10 | Plant response rating, Crabgrass, Large [21, 26]: 0 | Plant response rating, Cocklebur [22, 25]: 0 | Cocklebur plant response rating ([22]; 125 g ai/ha): 60 | Cocklebur plant response rating ([22]; 500 g ai/ha): 80 | Plant response rating, Cocklebur [22, 26]: 0 | Plant response rating, Barnyardgrass [23, 25]: 80 | Barnyardgrass plant response rating ([23]; 125 g ai/ha): 10 | Barnyardgrass plant response rating ([23]; 500 g ai/ha): 50 | Plant response rating, Barnyardgrass [23, 26]: 30 | Crabgrass, Large plant response rating [24, 27]: 15 | Plant response rating, Crabgrass, Large [24, 28]: 50 | Crabgrass, Large plant response rating [24, 31]: 25 | Crabgrass, Large plant response rating [24, 29]: 50
